Structures can show the parent of a compound that is named as a salt.
Assay: pH-dependent solubility study of CFZ-HCl (Flynn approach)
Format: physicochemical
Experimental: Solubility Measurement Using the Flynn Approach. […] Mili-Q water (15 mL) was added to each vial ensuring that CFZ-HCl crystals were in great excess. Moreover, an appropriate amount of 0.1 M NaOH was added to each vial to set the initial equilibration pH measurements as follows: […] The set of sample containing vials was placed on a magnetic stirrer plate in a 25° C. water bath. […] The pH of the filtered sample was determine by Denver Instrument UltraBasic pH meter (Denver Instrument, Bohemia, N.Y.), after which the sample was subjected to HPLC analysis (Waters Alliance, Separations Module 2695) to determine the total solubility of the drug at the measured pH. […] The retention time for CFZ was determined to be at 4.75 min. […] Thus, in order to fit the experimental solubility-pH data curve of CFZ-HC, it was determined which one of the aforementioned solubility-pH relationships (equation 8 vs. equation 9) to use. […] Then, a value, say “y”, from the list of the computed [CFZH^+] values was set equal [CFZH+]S. By substituting “y' in place of [CFZH+]S, total solubility at the different pH values was calculated using the solubility-pH equation where the intrinsic salt is the primary solid species (equation 15). […]

solubility versus unprotonated CFZ free base (dissolved in pure water): greater solubility | pHmax (from pH-solubility profile, 25° C.): 4.5±7.11×10^−15
Compound: CC(C)/N=c1\cc2n(-c3ccc(Cl)cc3)c3ccccc3nc-2cc1Nc1ccc(Cl)cc1 [CFZ-HCl, Clofazimine Hydrochloride]
